The assay concerns the target Vesicular monoamine transporter 2 (VMAT2) (Homo sapiens, UniProt Q05940). As to the kind of experiment: cryo-EM structure at […] Å. It counts as cell-based.

Broadly, the IC50 is the concentration that inhibits the measured activity by half.

Vesicular monoamine transporter 2 (VMAT2), sequence (Q05940 12-514): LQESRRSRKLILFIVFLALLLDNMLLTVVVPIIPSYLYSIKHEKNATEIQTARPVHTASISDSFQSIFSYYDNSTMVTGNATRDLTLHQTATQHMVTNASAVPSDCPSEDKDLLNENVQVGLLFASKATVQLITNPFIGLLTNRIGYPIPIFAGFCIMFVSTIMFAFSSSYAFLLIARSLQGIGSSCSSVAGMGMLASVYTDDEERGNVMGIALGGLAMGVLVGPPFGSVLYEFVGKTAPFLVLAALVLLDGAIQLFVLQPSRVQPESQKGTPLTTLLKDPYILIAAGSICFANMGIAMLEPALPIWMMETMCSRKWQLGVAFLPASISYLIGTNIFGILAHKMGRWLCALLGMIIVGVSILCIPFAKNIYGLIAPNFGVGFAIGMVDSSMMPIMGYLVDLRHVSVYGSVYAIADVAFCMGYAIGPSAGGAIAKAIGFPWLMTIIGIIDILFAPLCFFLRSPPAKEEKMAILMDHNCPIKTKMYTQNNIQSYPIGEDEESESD

`COc1cc2c(cc1OC)C1CC(=O)C(CC(C)C)CN1CC2` (stereo not shown) [TBZ, tetrabenazine] registered an IC50 of 20.4 ± 4.1 nM.
